Active and inactive are the calls of the source. No cut-off for these calls is given here.
What was measured:
[1] = Stability in human liver S9 fraction assessed as parent compound remaining at 1 uM measured after 4 hrs by LC-MS/MS analysis; assay type: ADME, subcellular; conditions: read-out: Stability
[2] = Stability in mouse liver S9 fraction assessed as parent compound remaining at 1 uM measured after 4 hrs by LC-MS/MS analysis; assay type: ADME, subcellular; conditions: read-out: Stability
[3] = Stability in rat liver S9 fraction assessed as parent compound remaining at 1 uM measured after 4 hrs by LC-MS/MS analysis; assay type: ADME, subcellular; conditions: read-out: Stability
[4] = Selectivity index, ratio of CC50 for MDCK cells to EC50 for Influenza A/California/04/2009 (H1N1)pdm09 virus infected in MDCK cells; assay type: toxicity, cell-based; conditions: dog, read-out: Ratio CC50/EC50
HEK-293T [5] = experiment: Inhibition of CEN polymerase activity in Influenza A/California/04/2009 (H1N1)pdm09 NP/PA/PB1/PB2 complex transfected in HEK293T cells co-expressing beta-galactosidase at 25 nM preincubated for 3 hrs followed by viral gene transfection and measured after 24 hrs by ONPG substrate based luciferase reporter gene mini-replicon assay relative to control; assay type: cell-based; conditions: Influenza A virus (A/California/04/2009(H1N1))
Influenza A virus [6] = experiment: Antiviral activity against Influenza A/California/04/2009 (H1N1)pdm09 infected in MDCK cells assessed as protection against virus-induced cell death by CellTiter-Glo assay; assay type: functional, organism-based; conditions: A/California/04/2009(H1N1) pdm09, MDCK
[7] = Cytotoxicity against MDCK cells assessed as reduction in cell viability by CellTiter-Glo assay; assay type: cell-based, Canis lupus familiaris; conditions: dog
HEK-293T [8] = experiment: Inhibition of CEN polymerase activity in Influenza A/California/04/2009 (H1N1)pdm09 NP/PA/PB1/PB2 complex transfected in HEK293T cells co-expressing beta-galactosidase at 100 nM preincubated for 3 hrs followed by viral gene transfection and measured after 24 hrs by ONPG substrate based luciferase reporter gene mini-replicon assay relative to control; assay type: cell-based; conditions: Influenza A virus (A/California/04/2009(H1N1))
[9] = Stability in rat plasma assessed as parent compound remaining at 1 uM measured after 4 hrs by LC-MS/MS analysis; assay type: ADME, cell-free; conditions: read-out: Stability
[10] = Stability in human plasma assessed as parent compound remaining at 1 uM measured after 4 hrs by LC-MS/MS analysis; assay type: ADME, cell-free; conditions: read-out: Stability
[11] = Stability in mouse plasma assessed as parent compound remaining at 1 uM measured after 4 hrs by LC-MS/MS analysis; assay type: ADME, cell-free; conditions: read-out: Stability
[12] = Cmax in CD1 mouse plasma assessed as (12aR)-12-[Bis(4-fluorophenyl)methyl]-7-hydroxy-3,4,12,12a-tetrahydro-1H-[1,4]oxazino[3,4-c]pyrido[2,1-f][1,2,4]triazine-6,8-dione level at 15 mg/kg, po administered as single dose by LC-MS/MS analysis; assay type: ADME, organism-based; parameters: dose 15 mg/kg, route oral; conditions: in vivo
[13] = AUClast in CD1 mouse plasma assessed as (12aR)-12-[Bis(4-fluorophenyl)methyl]-7-hydroxy-3,4,12,12a-tetrahydro-1H-[1,4]oxazino[3,4-c]pyrido[2,1-f][1,2,4]triazine-6,8-dione level at 15 mg/kg, po administered as single dose by LC-MS/MS analysis; assay type: ADME, organism-based; parameters: dose 15 mg/kg, time 0 - last, route oral; conditions: in vivo
[14] = Cmax in CD1 mouse lung assessed as (12aR)-12-[Bis(4-fluorophenyl)methyl]-7-hydroxy-3,4,12,12a-tetrahydro-1H-[1,4]oxazino[3,4-c]pyrido[2,1-f][1,2,4]triazine-6,8-dione level at 15 mg/kg, po administered as single dose by LC-MS/MS analysis; assay type: ADME, organism-based; parameters: dose 15 mg/kg, route oral; conditions: in vivo
[15] = Ratio of AUClast in CD1 mouse lung to plasma assessed as (12aR)-12-[Bis(4-fluorophenyl)methyl]-7-hydroxy-3,4,12,12a-tetrahydro-1H-[1,4]oxazino[3,4-c]pyrido[2,1-f][1,2,4]triazine-6,8-dione level at 15 mg/kg, po administered as single dose by LC-MS/MS analysis; assay type: ADME, organism-based; conditions: other tissue
[16] = Oral bioavailability in CD1 mouse assessed as (12aR)-12-[Bis(4-fluorophenyl)methyl]-7-hydroxy-3,4,12,12a-tetrahydro-1H-[1,4]oxazino[3,4-c]pyrido[2,1-f][1,2,4]triazine-6,8-dione level at 15 mg/kg administered as single dose by LC-MS/MS analysis; assay type: ADME, organism-based; conditions: in vivo
[17] = AUClast in CD1 mouse lung assessed as (12aR)-12-[Bis(4-fluorophenyl)methyl]-7-hydroxy-3,4,12,12a-tetrahydro-1H-[1,4]oxazino[3,4-c]pyrido[2,1-f][1,2,4]triazine-6,8-dione level at 15 mg/kg, po administered as single dose by LC-MS/MS analysis; assay type: ADME, organism-based; conditions: in vivo
[18] = Ratio of Cmax in CD1 mouse lung to plasma assessed as (12aR)-12-[Bis(4-fluorophenyl)methyl]-7-hydroxy-3,4,12,12a-tetrahydro-1H-[1,4]oxazino[3,4-c]pyrido[2,1-f][1,2,4]triazine-6,8-dione level at 15 mg/kg, po administered as single dose by LC-MS/MS analysis; assay type: ADME, organism-based; conditions: other tissue
[19] = Stability in simulated gastric fluid assessed as parent compound remaining at 1 uM measured after 4 hrs at pH 1.2 by LC-MS/MS analysis; assay type: physicochemical; conditions: read-out: Stability
[20] = Stability in simulated intestinal fluid assessed as parent compound remaining at 1 uM measured after 4 hrs at pH 1.2 by LC-MS/MS analysis; assay type: physicochemical; conditions: read-out: Stability
[21] = Cmax in CD1 mouse lung at 10 mg/kg, po administered as single dose by LC-MS/MS analysis; assay type: ADME, organism-based; parameters: dose 10 mg/kg, route oral
[22] = Oral bioavailability in CD1 mouse at 10 mg/kg administered as single dose by LC-MS/MS analysis; assay type: ADME, organism-based; conditions: in vivo
[23] = Ratio of Cmax in CD1 mouse lung to plasma at 10 mg/kg, po administered as single dose by LC-MS/MS analysis; assay type: ADME, organism-based; conditions: lung and plasma
[24] = Ratio of AUClast in CD1 mouse lung to plasma at 10 mg/kg, po administered as single dose by LC-MS/MS analysis; assay type: ADME, organism-based; conditions: lung and plasma, read-out: Ratio AUC
[25] = AUClast in CD1 mouse lung at 10 mg/kg, po administered as single dose by LC-MS/MS analysis; assay type: ADME, organism-based; conditions: in vivo
[26] = AUClast in CD1 mouse plasma at 10 mg/kg, po administered as single dose by LC-MS/MS analysis; assay type: ADME, organism-based; parameters: dose 10 mg/kg, route oral, time 0 - last
[27] = AUClast in CD1 mouse plasma at 2 mg/kg, iv administered as single dose by LC-MS/MS analysis; assay type: ADME, organism-based; parameters: dose 2 mg/kg, route intravenous, time 0 - last
[28] = Cmax in CD1 mouse plasma at 10 mg/kg, po administered as single dose by LC-MS/MS analysis; assay type: ADME, organism-based; parameters: dose 10 mg/kg, route oral
Influenza A virus H3N2 = experiment: Antiviral activity against Influenza A virus (A/Fukui/20/2004 (H3N2)) infected in MDCK cells assessed as protection against virus-induced cell death measured 72 to 96 hrs post-infection by CellTiter-Glo assay; assay type: functional, organism-based
Influenza B virus [29] = experiment: Antiviral activity against Yamagata lineage of Influenza B virus (B/Florida/4/2006) infected in MDCK cells assessed as protection against virus-induced cell death measured 72 to 96 hrs post-infection by CellTiter-Glo assay; assay type: functional, organism-based
Influenza A virus [30] = experiment: Antiviral activity against Influenza A virus (A/Denmark/524/2009(H1N1)) pdm09 infected in MDCK cells assessed as protection against virus-induced cell death measured 72 to 96 hrs post-infection by CellTiter-Glo assay; assay type: functional, organism-based
Influenza B virus [31] = experiment: Antiviral activity against Victoria lineage of Influenza B virus (B/Brisbane/60/2008) infected in MDCK cells assessed as protection against virus-induced cell death measured 72 to 96 hrs post-infection by CellTiter-Glo assay; assay type: functional, organism-based

| Structure (SMILES) | remaining at 4 h, 1 µM [1] [%] | remaining at 4 h, 1 µM [2] [%] | remaining at 4 h, 1 µM [3] [%] | selectivity ratio [4] | inhibition (HEK-293T [5]) [%] | EC50 (Influenza A virus [6]) [nM] | CC50 [7] [nM] | inhibition (HEK-293T [8]) [%] | remaining at 4 h, 1 µM [9] [%] | remaining at 4 h, 1 µM [10] [%] | remaining at 4 h, 1 µM [11] [%] | bioavailability [22] [%] | AUC(0-t) [26] [ng·h/mL] | AUC(0-t) [27] [ng·h/mL] | Cmax [28] [ng/mL] | further results |
| --- | --- | --- | --- | --- | --- | --- | --- | --- | --- | --- | --- | --- | --- | --- | --- | --- |
| O=c1ccc2ccc(O)cc2o1 [UMBELLIFERONE] | 0.39 | 0.83 | 2.74 |  |  |  |  |  |  |  |  |  |  |  |  |  |
| O=C1c2c(O)c(=O)ccn2N(C(c2ccc(F)c(F)c2)c2ccc(F)c(F)c2)[C@@H]2COCCN12 |  |  |  | 611 | 50.2 | 22.6 | 13800 | 80.9 |  |  |  |  |  |  |  |  |
| CC(C)[N+](C)(CCOC(=O)C1c2ccccc2Oc2ccccc21)C(C)C [PROPANTHELINE] |  |  |  |  |  |  |  |  | 74.3 | 1.28 | 1.21 |  |  |  |  |  |
| COC(=O)OCOc1c2n(ccc1=O)N(C(c1ccc(F)cc1)c1ccc(F)cc1)[C@@H]1COCCN1C2=O |  |  |  |  |  |  |  |  |  |  |  |  |  |  |  | Cmax [12]: 647 ng/mL; AUClast [13]: 3186 ng·h/mL; Cmax [14]: 708 ng/g; Ratio AUC [15]: 1; F [16]: 39.6%; AUClast [17]: 3302 ng·h/g; Ratio [18]: 1.1; remaining at 4 h, 1 µM [19]: 98.4%; remaining at 4 h, 1 µM [20]: 99.7% |
| O=C1c2c(O)c(=O)ccn2N(C(c2ccc(F)cc2)c2ccc(F)cc2)[C@@H]2COCCN12 | 97 | 103 | 98.3 | 993 | 45.4 | 13.4 | 13300 | 80 |  |  |  | 22.6 | 1820 | 1070 | 308 | Cmax [21]: 935 ng/g; Kp [23]: 3; Kp [24]: 2.5; remaining at 4 h, 1 µM [19]: 87.3%; AUClast [25]: 4490 ng·h/g; remaining at 4 h, 1 µM [20]: 96% |
| O=C1c2c(O)c(=O)ccn2N([C@@H](c2ccccc2)c2ccc(F)c(F)c2)[C@@H]2COCCN12 | 113 | 92.4 | 99.6 | 538 | 28.4 | 22.5 | 12100 | 63.2 | 85.8 | 90.3 | 105 | 17.6 | 817 | 927 | 332 | Cmax [21]: 501 ng/g; Kp [23]: 1.5; Kp [24]: 0.9; EC50 (Influenza A virus H3N2; A/Fukui/20/2004, MDCK): 3.6 to 12.5 nM; AUClast [25]: 735 ng·h/g; EC50 (Influenza B virus [29]; B/Florida/4/2006, MDCK): 5100 to 28300 nM; EC50 (Influenza A virus [30]; A/Denmark/524/2009(H1N1) pdm09, MDCK): 3.6 to 12.5 nM; EC50 (Influenza B virus [31]; B/Brisbane/60/2008, MDCK): 5100 to 28300 nM |
| O=C(O)CCCc1ccc(N(CCCl)CCCl)cc1 [CHLORAMBUCIL] |  |  |  |  |  |  |  |  |  |  |  |  |  |  |  | remaining at 4 h, 1 µM [19]: 97.2%; remaining at 4 h, 1 µM [20]: 0.04% |
| CSc1ccccc1[C@@H](c1ccc(F)c(F)c1)N1[C@@H]2COCCN2C(=O)c2c(O)c(=O)ccn21 |  |  |  | 67 | 3.1 | 146 | 9800 | 13.2 |  |  |  |  |  |  |  |  |
| O=C1c2c(O)c(=O)ccn2N([C@@H]2c3ccccc3SCc3c2ccc(F)c3F)[C@@H]2COCCN12 [BALOXAVIR] | 93.5 | 87.7 | 85 | > 1000 | 99.6 | 0.9 | 5600 | 99.7 | 73.9 | 89.9 | 45.4 | 3 | 79.9 | 354 | 11.9 | Activity (Influenza A virus H3N2): Active; Activity (Influenza B virus [29]): Active; Activity (Influenza A virus [30]): Active; Activity (Influenza B virus [31]): Active |
| CSc1ccccc1[C@H](c1ccc(F)c(F)c1)N1[C@@H]2COCCN2C(=O)c2c(O)c(=O)ccn21 |  |  |  | 511 | 22.9 | 32.1 | 16400 | 74.1 |  |  |  |  |  |  |  |  |
| O=C1c2c(O)c(=O)ccn2N([C@H](c2ccccc2)c2ccc(F)c(F)c2)[C@@H]2COCCN12 | 104 | 95.2 | 95.4 | > 1000 | 42.2 | 15.4 | 15900 | 83.9 | 94.4 | 85.7 | 114 | 2.7 | 303 | 2210 | 115 | Cmax [21]: 264 ng/g; Kp [23]: 2.3; Kp [24]: 1.3; AUClast [25]: 384 ng·h/g |

— ChEMBL document CHEMBL4622979, “Non-rigid Diarylmethyl Analogs of Baloxavir as Cap-Dependent Endonuclease Inhibitors of Influenza Viruses” (J Med Chem, 2020)
